Read-outs that look alike come from different tables or passages of the source.
How the values were obtained:
[1] = tested on: HCV nonstructural protein NS5A or NS3 in 9–13 replicon cells; test: Quantitative Western blot assay; assay type: cell-based, Hepatitis C virus; details: 9–13 replicon cells, NS5A or NS3 Western blot, read-out: Western IC50
Experimental: Alternatively, the inhibitory activity of the compounds can be confirmed using a quantitative Western immunoblot assay utilizing antibodies specific for HCV non-structural proteins, such as NS3, NS4A NS5A and NS5B. In one embodiment of this assay, replicon cells are treated with varying concentrations of test compound to determine the concentration of test compound that yields a 50% reduction in the amount of a non-structural protein produced as compared to a control sample (IC50). A single non-structural protein may be quantified or multiple non-structural proteins may be quantified. Antibodies suitable for carrying out such immunoblot assays are available commercially (e.g., from BIODESIGN International, Saco, Me.).
Certain exemplary compounds of the invention were also tested for their ability to inhibit HCV replication using a quantitative Western blot analysis with antibodies specific for the HCV nonstructural protein NS5A or NS3. Actively dividing 9–13 replicon cells were seeded into Swell plates at a density of 1×10^5 cells/well in a volume of 2 ml/well and incubated at 37° C. and 5% CO2 for 24 hours. Various concentrations of test compounds (in a volume of 10 ul) were added to the wells and the cells incubated for another 48 hours. Protein samples were prepared from the cultured cells, resolved on a SDS-PAGE gel and transferred to a nitrocellulose membrane. The membrane was blocked with 5% non-fat milk in PBS for 1 hour at room temperature. Primary antibody (anti NS5A antibody; BIODESIGN International, Saco, Me. or anti NS3 antibody, Rigel) incubation was performed for 1 hour at room temperature, after which the membrane was washed 3 times (for 15 min per time) with PBST (PBS plus 0.1% Tween 20). Horseradish peroxidase conjugated secondary antibody incubation was performed for 1 hour at room temperature and the membrane was washed 3 times (for 15 min per time) with PBST. The membrane was then soaked in substrate solution (Pierce) and exposed to a film or quantified using an imager. In this assay, the amount of test compound that yielded a 50% reduction in the amount of NS5A or NS3 protein translated as compared to a control sample (IC50) was determined.
In TABLE 1, a value of “+” indicates an IC50 of 10 μM or less in the specified assay; a value of “−” indicates an IC50 of greater than 10 μM in the specified assay.

[2] = tested on: HCV replicon (5-2 Luc replicon-comprising cells); test: HCV replicon assay (luciferase); assay type: cell-based, Hepatitis C virus; details: 5-2 Luc replicon cells, luciferase readout, read-out: Replicon IC50
Summary of the method: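 Huh7-derived 5-2 Luc replicon cells seeded 24 h at 37 °C, then exposed to compound at various concentrations for another 24 h. Luciferase quantified by Bright-Glo luminescence; IC50 = concentration giving 50% reduction in luciferase activity; reported as +/− at a 10 μM cut-off.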

[3] = Cytotoxicity assay (Cell Titer Glo); assay type: cell-based; details: human; 48 hr with compound, ATP-dependent Cell Titer Glo assay; read-out: IC50 in cytotoxicity assay (number of viable cells)
Experimental: Compounds 67, 167, 169, 13, 1, 145, 29, 119, 63, 31, 39, 103, 123, 121, 97, 129, 79, 111, 85, 89, 109, 127, 131, 95, 47, 57, 69, 165, 161, 163, 3, 137, 15, 141, 41, 53, 33, 113, 93, 105, 77, 91, 81, 83, 35, 27, 65, 7, 135, 51, 139, 51, 49, 143, 5, 149, 11, 37, 21, 45, 61, 75, 23, 125, 73, 43, 171 and 101 were tested in a cytotoxicity assay with liver cells including an HCV replicon (5-2 Luc cells, 9–13 cells or Huh-7 cells). In the assay, cells were seeded onto 96-well plates (approx. 7500 cells/well in a volume of 90 μl) and grown for 24 hr at 37° C. On day 2, various concentrations of test compound (in a volume of 10 μl) were added to the wells and the cells were grown for an additional 48 hr at 37° C. On day 4, an ATP-dependent R-Luciferase assay (Cell Titer Glo assay) was performed to determine the number of viable cells.

## Cc1ccc(F)c(-c2cc(-c3cccc(NC(=O)C(Cl)Cl)c3)on2)c1Cl [Compound 15, 2,2-Dichloro-N-[3-[3-(2-chloro-6-fluoro-3-methylphenyl)-5-isoxazolyl]phenyl]Acetamide]
[1]; Hepatitis C virus
  IC50: < 10 µM
[2]; Hepatitis C virus
  IC50: < 10 µM
[3]
  IC50 at 48 h: > 10 µM

## COc1cccc(C(=O)O)c1-c1cc(-c2cccc(NC(=O)C(Cl)Cl)c2)on1 [Compound 702]
[1]
  IC50: < 10 µM
[2]
  IC50: > 10 µM

## Cc1ccc(C(=O)N2CCN(c3cccc(Cl)c3-c3cc(-c4cccc(NC(=O)C(Cl)Cl)c4)on3)CC2)cc1 [Compound 665]
[1]
  IC50: < 10 µM
[2]
  IC50: < 10 µM

## COC(=O)c1cccc(Cl)c1-c1cc(-c2cccc(NC(=O)C(Cl)Cl)c2)on1 [Compound 680]
[1]
  IC50: < 10 µM
[2]
  IC50: < 10 µM

## CC(C)(C)OC(=O)N1CCN(C(=O)c2cccc(Cl)c2-c2cc(-c3cccc(NC(=O)C(Cl)Cl)c3)on2)CC1 [Compound 698]
[1]
  IC50: < 10 µM
[2]
  IC50: > 10 µM

## O=C(Nc1cccc(-c2cc(-c3c(Cl)cccc3C(=O)N3CCOCC3)no2)c1)C(Cl)Cl [Compound 689]
[1]
  IC50: < 10 µM

## O=C(NCc1ccccn1)c1cccc(Cl)c1-c1cc(-c2cccc(NC(=O)C(Cl)Cl)c2)on1 [Compound 694]
[1]
  IC50: < 10 µM
[2]
  IC50: < 10 µM

## CC(C)(C)OC(=O)NC1CCN(c2cccc(Cl)c2-c2cc(-c3cccc(NC(=O)C(Cl)Cl)c3)on2)C1 (stereo not drawn) [Compound 672]
[1]
  IC50: < 10 µM
[2]
  IC50: < 10 µM

## COC(=O)c1cccc(F)c1-c1cc(-c2cccc(NC(=O)C(Cl)Cl)c2)on1 [Compound 705]
[1]
  IC50: < 10 µM
[2]
  IC50: < 10 µM

## O=C(Nc1cccc(-c2cc(-c3c(Cl)cccc3N3CCOCC3)no2)c1)C(Cl)Cl [Compound 7, 2,2-Dichloro-N-[3-[3-[2-chloro-6-(N-morpholino)phenyl]-5-isoxazolyl]phenyl]Acetamide]
[1]
  IC50: < 10 µM

## CCOc1cccc(Cl)c1-c1cc(-c2cccc(NC(=O)C(Cl)Cl)c2)on1 [Compound 708]
[1]
  IC50: < 10 µM
[2]
  IC50: < 10 µM

## O=C(Nc1cccc(-c2cc(-c3c(Cl)cccc3OC(F)F)no2)c1)C(Cl)Cl [Compound 710]
[1]
  IC50: < 10 µM
[2]
  IC50: < 10 µM

## O=C(Nc1ccc(F)c(-c2cc(-c3c(Cl)cccc3Cl)no2)c1)C(Cl)Cl [Compound 13, 2,2-Dichloro-N-[3-[3-(2,6-dichlorophenyl)-5-isoxazolyl]4-fluorophenyl]Acetamide]
[1]; Hepatitis C virus
  IC50: < 10 µM
[2]; Hepatitis C virus
  IC50: < 10 µM
[3]
  IC50 at 48 h: > 10 µM

## CN(C)C(=O)c1cccc(Cl)c1-c1cc(-c2cccc(NC(=O)C(Cl)Cl)c2)on1 [Compound 692]
[1]
  IC50: < 10 µM
[2]
  IC50: < 10 µM

## O=C(Nc1cccc(-c2cc(-c3c(N4CCOCC4)cccc3C(F)(F)F)no2)c1)C(Cl)Cl [Compound 37, 2,2-Dichloro-N-[3-[3-[2-(N-morpholino)-6-trifluoromethylphenyl)-5-isoxazolyl]phenyl]Acetamide]
[1]
  IC50: < 10 µM
[2]
  IC50: < 10 µM

## O=C(Nc1cccc(-c2cc(-c3c(Cl)cccc3C(=O)N3CCN(Cc4ccccc4)CC3)no2)c1)C(Cl)Cl [Compound 697]
[1]
  IC50: < 10 µM
[2]
  IC50: > 10 µM

## O=C(Nc1cccc(-c2cc(-c3c(Cl)cccc3OCC3CC3)no2)c1)C(Cl)Cl [Compound 709]
[1]
  IC50: < 10 µM
[2]
  IC50: < 10 µM

## NC1CCN(c2cccc(Cl)c2-c2cc(-c3cccc(NC(=O)C(Cl)Cl)c3)on2)C1 (stereo not drawn) [Compound 673]
[1]
  IC50: < 10 µM

## CS(=O)(=O)NC1CCN(c2cccc(Cl)c2-c2cc(-c3cccc(NC(=O)C(Cl)Cl)c3)on2)C1 (stereo not drawn) [Compound 682]
[1]
  IC50: < 10 µM

## CN(C)C(=O)NC1CCN(c2cccc(Cl)c2-c2cc(-c3cccc(NC(=O)C(Cl)Cl)c3)on2)C1 (stereo not drawn) [Compound 675]
[1]
  IC50: < 10 µM

## CC(C)Oc1cccc(Cl)c1-c1cc(-c2cccc(NC(=O)C(Cl)Cl)c2)on1 [Compound 706]
[1]
  IC50: < 10 µM
[2]
  IC50: < 10 µM

## O=C(Nc1cccc(-c2cc(-c3c(F)cccc3Cl)no2)c1)C(Cl)Cl [Compound 27, 2,2-Dichloro-N-[3-[3-(2-chloro-6-fluorophenyl)-5-isoxazolyl]phenyl]Acetamide]
[1]; Hepatitis C virus
  IC50: < 10 µM
[2]; Hepatitis C virus
  IC50: < 10 µM
[3]
  IC50 at 48 h: > 5 µM

## COC(=O)[C@@H](NC(=O)c1cccc(Cl)c1-c1cc(-c2cccc(NC(=O)C(Cl)Cl)c2)on1)C(C)C [Compound 695]
[1]
  IC50: < 10 µM
[2]
  IC50: > 10 µM

## COC(=O)C(NC(=O)c1cccc(Cl)c1-c1cc(-c2cccc(NC(=O)C(Cl)Cl)c2)on1)C(C)C (stereo not drawn) [Compound 696]
[1]
  IC50: < 10 µM
[2]
  IC50: < 10 µM

## Cc1cccc(-c2cc(-c3cccc(NC(=O)C(Cl)Cl)c3)on2)c1C [Compound 163, 2,2-Dichloro-N-[3-[3-(2,3-dimethylphenyl)-5-isoxazolyl]phenyl]Acetamide]
[1]; Hepatitis C virus
  IC50: > 10 µM
[2]; Hepatitis C virus
  IC50: > 10 µM
[3]
  IC50 at 48 h: > 10 µM

## O=C(Nc1cccc(-c2cc(-c3c(Cl)cccc3C(=O)N3CCN(c4ccccc4)CC3)no2)c1)C(Cl)Cl [Compound 690]
[1]
  IC50: < 10 µM
[2]
  IC50: < 10 µM

## CC(C)(C)OC(=O)c1cccc(F)c1-c1cc(-c2cccc(NC(=O)C(Cl)Cl)c2)on1 [Compound 701]
[1]
  IC50: < 10 µM
[2]
  IC50: < 10 µM

## Cc1oc(=O)oc1COC(=O)c1cccc(Cl)c1-c1cc(-c2cccc(NC(=O)C(Cl)Cl)c2)on1 [Compound 707]
[1]
  IC50: < 10 µM
[2]
  IC50: < 10 µM

## O=C(Nc1cccc(-c2cc(-c3c(F)cccc3S(=O)(=O)N3CCOCC3)no2)c1)C(Cl)Cl [Compound 21, 2,2-Dichloro-N-[3-[3-[2-fluoro-(6-N-morpholinosulfamoyl)phenyl]-5-isoxazolyl]-phenyl]Acetamide]
[1]
  IC50: < 10 µM
[2]
  IC50: < 10 µM

## NC1CCN(c2cccc(Cl)c2-c2cc(-c3cccc(NC(=O)C(Cl)Cl)c3)on2)C1 (stereo not drawn) [Compound 674]
[1]
  IC50: < 10 µM
[2]
  IC50: < 10 µM

## CC(C)(C)OC(=O)NC1CCN(c2cccc(Cl)c2-c2cc(-c3cccc(NC(=O)C(Cl)Cl)c3)on2)C1 (stereo not drawn) [Compound 671]
[1]
  IC50: < 10 µM
[2]
  IC50: < 10 µM

## O=C(Nc1cccc(-c2cc(-c3c(Cl)cccc3OC3CCCC3)no2)c1)C(Cl)Cl [Compound 699]
[1]
  IC50: < 10 µM
[2]
  IC50: < 10 µM

## O=C(O)c1cccc(F)c1-c1cc(-c2cccc(NC(=O)C(Cl)Cl)c2)on1 [Compound 703]
[1]
  IC50: > 10 µM
[2]
  IC50: > 10 µM

## CSc1cccc(F)c1-c1cc(-c2cccc(NC(=O)C(Cl)Cl)c2)on1 [Compound 11, 2,2-Dichloro-N-[3-[3-(2-fluoro-6-thiomethylphenyl)-5-isoxazolyl]phenyl]Acetamide]
[1]
  IC50: < 10 µM
[2]
  IC50: < 10 µM

## COc1cccc(C(=O)OC(C)(C)C)c1-c1cc(-c2cccc(NC(=O)C(Cl)Cl)c2)on1 [Compound 700]
[1]
  IC50: > 10 µM
[2]
  IC50: < 10 µM

## O=C(Nc1cccc(-c2cc(-c3c(Cl)cc(OCCN4CCOCC4)cc3Cl)no2)c1)C(Cl)Cl [Compound 75, 2,2-Dichloro-N-[3-[3-[2,6-dichloro 4-(N-morpholinoethyleneoxy)phenyl]-5-isoxazolyl]-phenyl]Acetamide]
[1]
  IC50: < 10 µM
[2]
  IC50: > 10 µM

## COC(=O)c1cccc(OC)c1-c1cc(-c2cccc(NC(=O)C(Cl)Cl)c2)on1 [Compound 704]
[1]
  IC50: > 10 µM
[2]
  IC50: > 10 µM

## CN(C)C(=O)NC1CCN(c2cccc(Cl)c2-c2cc(-c3cccc(NC(=O)C(Cl)Cl)c3)on2)C1 (stereo not drawn) [Compound 676]
[1]
  IC50: < 10 µM
[2]
  IC50: < 10 µM
